Test results reported in ChEMBL document CHEMBL1146379, “Solid phase synthesis and SAR of small molecule agonists for the GPR40 receptor” (Bioorg Med Chem Lett, 2007).
pEC50: −log10 of the molar value. In brackets after ≈: the same amount, converted by molar mass.

How the values were obtained:
[1] = molecular target: T1, Free fatty acid receptor 1 (Homo sapiens, UniProt O14842); assay: Agonist activity at GPR40 receptor expressed in CHO cells by reporter gene assay; assay type: functional, cell-based
T1 sequence (O14842 whole entry): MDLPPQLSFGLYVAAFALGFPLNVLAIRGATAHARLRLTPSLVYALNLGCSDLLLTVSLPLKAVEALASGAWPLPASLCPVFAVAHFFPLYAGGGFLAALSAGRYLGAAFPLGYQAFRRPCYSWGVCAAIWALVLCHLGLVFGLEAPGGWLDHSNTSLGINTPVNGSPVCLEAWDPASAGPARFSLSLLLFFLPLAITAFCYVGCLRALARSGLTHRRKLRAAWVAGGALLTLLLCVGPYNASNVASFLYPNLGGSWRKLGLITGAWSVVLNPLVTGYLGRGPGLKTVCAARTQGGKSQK

[2] = molecular target: T1, Free fatty acid receptor 1; assay: Agonist activity at GPR40 receptor; assay type: functional
[3] = Solubility at pH 7.4; assay type: physicochemical; details: buffer
[4] = Distribution coefficient, log D at pH 7.4; assay type: physicochemical; details: octanol/water

O=C(O)CCc1ccc(NCc2ccc(C(=O)O)cc2)cc1
%max [1]: 9%

CC(C(=O)O)c1ccc(NCc2ccc(-c3ccccc3)cc2)cc1 (stereo unspecified)
%max [1]: 21%

O=C(O)CCc1ccc(NCc2cccc(Br)c2)cc1
pEC50 [2]: 6.10
%max [1]: 120%

O=C(O)CCc1cccc(NCc2cccc(Oc3ccccc3)c2)c1
pEC50 [2]: 6.40
%max [1]: 148%

O=C(O)Cc1ccc(NCc2ccc(-c3ccccc3)cc2)cc1
pEC50 [2]: 4.91
%max [1]: 69%

O=C(O)CCCc1ccc(NCc2ccc(-c3ccccc3)cc2)cc1
pEC50 [2]: 5.80
%max [1]: 62%

CS(=O)(=O)Nc1cccc(CNc2ccc(CCC(=O)O)cc2)c1
%max [1]: 9%

O=C(O)CCc1ccc(NCc2ccccc2Cl)cc1
pEC50 [2]: 5.40
%max [1]: 122%

O=C(O)CCCc1ccc(NCc2cccc(Oc3ccccc3)c2)cc1
pEC50 [2]: 5.50
%max [1]: 74%

O=C(O)CCc1ccc(NCc2ccc3c(c2)OCO3)cc1
%max [1]: 141%

O=C(O)CCc1ccc(NCc2ccc(-c3ccccc3)cc2)cc1
pEC50 [2]: 6.60
%max [1]: 111%

O=C(O)CCc1ccc(NCc2ccccc2)cc1
pEC50 [2]: 5.10
%max [1]: 144%

CC(C(=O)O)c1ccc(NCc2cccc(Oc3ccccc3)c2)cc1 (stereo unspecified)
pEC50 [2]: 4.78
%max [1]: 34%

O=C(O)CCc1cccc(NCc2ccc(-c3ccccc3)cc2)c1
pEC50 [2]: 6.30
%max [1]: 160%

O=C(O)CCc1ccc(NCc2ccc(Cl)s2)cc1
%max [1]: 143%

O=C(O)C1CC1c1ccc(NCc2cccc(Oc3ccccc3)c2)cc1 (stereo unspecified)
pEC50 [2]: 7.30
%max [1]: 74%

COc1ccc(CNc2ccc(CCC(=O)O)cc2)cc1
pEC50 [2]: 5.90
%max [1]: 159%

NC(=O)c1cccc(CNc2ccc(CCC(=O)O)cc2)c1
%max [1]: 18%

O=C(O)CCc1ccc(NCc2ccc(O)cc2)cc1
%max [1]: 37%

Cc1ccc(CNc2ccc(CCC(=O)O)cc2)cc1
pEC50 [2]: 5.40
%max [1]: 152%

O=C(O)CCc1ccc(NCc2ccc3ccccc3c2)cc1
pEC50 [2]: 6.10
%max [1]: 123%

O=C(O)CCc1ccc(NCc2ccc(C(F)(F)F)cc2)cc1
%max [1]: 133%

O=C(O)CCc1ccc(NCc2ccc(Cl)cc2)cc1
pEC50 [2]: 6.00
solubility [3]: 830 µg/mL (≈ 2860 µM)
logD [4]: 0.98
%max [1]: 111%

CN(C)Cc1ccc(CNc2ccc(CCC(=O)O)cc2)cc1
%max [1]: 12%

N#Cc1ccc(CNc2ccc(CCC(=O)O)cc2)cc1
%max [1]: 49%

O=C(O)CCc1ccc(NCc2ccc(Cl)c(Cl)c2)cc1
pEC50 [2]: 6.60
%max [1]: 117%

O=C(O)Cc1ccc(NCc2cccc(Oc3ccccc3)c2)cc1
pEC50 [2]: 5.40
%max [1]: 32%

O=C(O)CCc1ccc(NCc2ccc(Oc3ccccc3)cc2)cc1
pEC50 [2]: 6.71
%max [1]: 139%

O=C(O)CCc1ccc(NCc2cc(C(F)(F)F)cnc2Cl)cc1
pEC50 [2]: 5.30
%max [1]: 112%

O=C(O)CCc1ccc(NCc2cccnc2)cc1
%max [1]: 4%

O=C(O)C1CC1c1ccc(NCc2ccc(-c3ccccc3)cc2)cc1 (stereo unspecified)
pEC50 [2]: 7.40
%max [1]: 80%

O=C(O)CCc1ccc(NCc2ncc[nH]2)cc1
%max [1]: 4%

O=C(O)CCc1ccc(NCc2cccc(F)c2)cc1
pEC50 [2]: 5.30
%max [1]: 120%
